From patent publication US7842683B2, “Neurotherapeutic compositions and method” (Revaax Pharmaceuticals, LLC, priority 1999, dated 2010)
Values joined by “and” are separate entries in the source; they are usually repeats but may differ in a detail not shown here. Identical values can stand only once.

Legend:
[1] = cited from earlier work
[2] = test system: Amino Acid, Adrenergic, Serotonergic, and Dopaminergic Receptors and Their Transporters; test: NOVASCREEN screen of thirty-six receptor and transporter binding assays; conditions: 100 nM, duplicate samples
Description: Moxalactam was screened in thirty-six different binding assays by NOVASCREEN, a contract research organization based in Hanover, Md. […] These assays were chosen because their respective receptor or transporter may play a role in the pathophysiology of mental illness. […] [table] [table] [table] [table] [table]

[3] = test system: serotonin 5HT1A receptors; test: Receptor autoradiography, competition for I125 DPAT; format: binding; conditions: tissue sections of the hamster brain
Description: Vasopressin and serotonin are both critical neurotransmitters in the control of offensive aggression in male hamsters (Ferris et al., 1998). These two neurotransmitters also are implicated in the control of human aggression (Coccaro et al., 1998). Vasopressin facilitates aggressive behavior while serotonin inhibits aggression, in part, by inhibiting the activity of the vasopressin system. Blockade of vasopressin V1A receptors and stimulation of serotonin 5HT1A receptors in the anterior hypothalamus blocks offensive aggression (Ferris et al., 1999). […] To test this notion Mox was tested in a membrane binding assay for competition for the V1A receptor (Ferris et al., 1994) and in a receptor autoradiography assay for competition for the 5HT1A receptors (Ferris et al., 1999).

Male Wistar rats = test: Elevated plus-maze (anxiolytic activity); format: in vivo, rat
[4] = approximately 7-10 mg/kg/day, intravenous as TIMENTIN; cited from earlier work
male hamsters = test: Novelty test, stress-induced release of cortisol; format: in vivo; conditions: 10 μg/kg IP
Procedure: The simple procedure of placing an adult male hamster into a novel environment for 5 min causes a significant, predictable increase in blood levels of cortisol (Weinberg and Wong 1986). This novelty test was used to assess the effects of CLAV on stress-induced release of cortisol. Two groups of male hamsters were treated IP with either CLAV (10 μg/kg, n=6), or saline vehicle (n=4). A third group (n=4) received no treatment or isolation stress and served as a control for basal levels of cortisol. Sixty min after treatment animals were taken from their home cage and placed into a novel cage for 5 min. Afterwards animals were sacrificed by decapitation and trunk blood collected for radioimmunoassay of cortisol. All animals were tested under reverse light:dark conditions four hrs into the dark cycle. Data were compared with a one-way ANOVA followed by Fisher PLSD post hoc tests.

SMILES	accumulation with multiple injections ([1]; 8-12 hr intervals)	elimination half-life ([1]; IM injection)	time of peak plasma concentrations ([1]; after IM injection)	CSF concentration as a percentage of serum concentration ([1]; human, in vivo)	effect in the thirty-six binding assays [2]	reduction of specific binding of I125 DPAT [3]	effective dose, times less than CDP (Male Wistar rats; CLAV 100 ng/kg vs CDP 10 mg/kg)	open arm entries (Male Wistar rats; daily IP for seven days: CLAV 100 ng/kg, CDP 10 mg/kg)	adverse reactions or contraindications [4]	effect on the release of cortisol in response to mild stress (male hamsters)	blood level of cortisol vs untreated, non-stressed control (male hamsters; sixty min, 5 min novel cage)
CO[C@@]1(NC(=O)C(C(=O)O)c2ccc(O)cc2)C(=O)N2C(C(=O)O)=C(CSc3nnnn3C)CO[C@@H]21 (stereo partly drawn) [Mox, 7-β-[2-carboxy-2-(4-hydroxyphenyl)acetamido]-7α-methoxy-3-[[(1-methyl-1H-tetrazol-5-yl)thio]methyl]-1-oxa-1-dethia-3-cephem-4-carboxylic acid]	no accumulation	2.3 h	one	20% and 15-20%	no significant effect	ineffective	–	–	–	–	–
O=C(O)[C@H]1/C(=C/CO)O[C@@H]2CC(=O)N21 [CLAV, Clavulanic acid]	–	–	–	–	–	–	100,000 times	no significant difference	no reported adverse reactions or contraindications	no ostensible effect	more than twice
